By Ki is commonly meant the dissociation constant of the complex between target and ligand, obtained from inhibition or displacement.

Molecules are shown by their SMILES.

For the assay, the target named is T1, human factor Xa (Homo sapiens, UniProt P00742).
T1 construct: human factor Xa; purchased Enzyme Research Laboratories, Inc; South Bend, Ind
T1 sequence (P00742 235-488 limits assumed): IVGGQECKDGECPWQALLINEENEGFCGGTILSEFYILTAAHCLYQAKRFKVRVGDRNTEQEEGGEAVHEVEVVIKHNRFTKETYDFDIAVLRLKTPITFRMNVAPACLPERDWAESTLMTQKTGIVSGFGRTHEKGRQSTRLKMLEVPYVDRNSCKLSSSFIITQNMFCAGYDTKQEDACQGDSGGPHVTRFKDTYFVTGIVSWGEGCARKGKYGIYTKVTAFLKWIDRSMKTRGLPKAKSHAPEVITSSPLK
T1 sequence (P00742 41-179 partner limits assumed): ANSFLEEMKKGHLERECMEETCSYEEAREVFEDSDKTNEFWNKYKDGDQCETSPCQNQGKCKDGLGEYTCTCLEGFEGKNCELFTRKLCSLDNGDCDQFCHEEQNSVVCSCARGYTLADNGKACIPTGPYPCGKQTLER
Description: Factor Xa assay (chromogenic, inhibition of factor Xa activity). The class given is biochemical. The following applies: purified human factor Xa 0.5 nM, chromogenic substrate S-2765 140 μM, 25° C., pH 7.8; Ki calculated from IC50 corrected for substrate competition; read-out: Ki (inhibition constant) for the inhibition of factor Xa. Here is the method:
Purified enzymes were used in chromogenic assays.
The assay was performed by pre-incubating the compound of formula I plus enzyme for 10 min. Then the assay was initiated by adding substrate to obtain a final volume of 100 μl. The initial velocity of chromogenic substrate hydrolysis was measured by the change in absorbance at 405 nm using a Bio-tek Instruments kinetic plate reader (Ceres UV900HDi) at 25° C. during the linear portion of the time course (usually 1.5 min after addition of substrate).
`CC(C)N1CCC(NC(=O)c2cc3cc(C(=O)OCC4COC(=O)O4)ccc3n2Cc2cc(-c3ccc(Cl)s3)on2)CC1` (stereo not drawn) [Example 3, 1-[5-(5-Chloro-thiophen-2-yl)-isoxazol-3-ylmethyl]-2-(1-isopropyl-piperidin-4-ylcarbamoyl)-1H-indole-5-carboxylic acid 2-oxo-[1,3]dioxolan-4-ylmethyl ester]: the Ki was 0.014 µM.

For the compound `CC(C)N1CCC(NC(=O)c2cc3cc(C(=O)N4CCCOCC4)ccc3n2CC(=O)Nc2ccc(Cl)nc2)CC1` [Example 6, 1-[(6-Chloro-pyridin-3-ylcarbamoyl)-methyl]-5-([1,4]oxazepane-4-carbonyl)-1H-indole-2-carboxylic acid (1-isopropyl-piperidin-4-yl)-amide], the inhibition constant (Ki) is 0.375 µM.

As for `CC(C)N1CCC(NC(=O)c2cc3c(C(=O)N4CC(O)C4)cccc3n2Cc2cc(-c3ccc(Cl)s3)on2)CC1` [Example 12, 1-[5-(5-Chloro-thiophen-2-yl)-isoxazol-3-ylmethyl]-4-(3-hydroxy-azetidine-1-carbonyl)-1H-indole-2-carboxylic acid (1-isopropyl-piperidin-4-yl)-amide], the Ki is 0.014 µM.

In the case of `COCCOC(=O)OC(C)OC(=O)c1ccc2c(c1)cc(C(=O)NC1CCN(C(C)C)CC1)n2CC(=O)Nc1ccc(Cl)cn1` (stereo not drawn) [Example 5, 1-[(5-Chloro-pyridin-2-ylcarbamoyl)-methyl]-2-(1-isopropyl-piperidin-4-ylcarbamoyl)-1H-indole-5-carboxylic acid 1-(2-methoxy-ethoxycarbonyloxy)-ethyl ester], the Ki is 0.009 µM.

In the case of `CC(C)N1CCC(NC(=O)c2cc3cc(C(=O)N4CC(O)C4)ccc3n2CC(=O)Nc2ccc(Cl)cn2)CC1` [Example 11, 1-[(5-Chloro-pyridin-2-ylcarbamoyl)-methyl]-5-(3-hydroxy-azetidine-1-carbonyl)-1H-indole-2-carboxylic acid (1-isopropyl-piperidin-4-yl)-amide], the Ki is 0.008 µM.

`CC(C)N1CCC(NC(=O)c2cc3cc(C(=O)N4CCCC4CO)ccc3n2Cc2cc(-c3ccc(Cl)s3)on2)CC1` (stereo not drawn) [Example 2, 1-[5-(5-Chloro-thiophen-2-yl)-isoxazol-3-ylmethyl]-5-(2-hydroxymethyl-pyrrolidine-1-carbonyl)-1H-indole-2-carboxylic acid (1-isopropyl-piperidin-4-yl)-amide]: the Ki is 0.113 µM.

In the case of `CC(C)N1CCC(NC(=O)c2cc3cc(C(=O)N4CCCOCC4)ccc3n2CC(=O)Nc2ccc(Cl)cn2)CC1` [Example 4, 1-[(5-Chloro-pyridin-2-ylcarbamoyl)-methyl]-5-([1,4]oxazepane-4-carbonyl)-1H-indole-2-carboxylic acid (1-isopropyl-piperidin-4-yl)-amide], the Ki is 0.022 µM.

With `COc1cccc(Cn2c(C(=O)NC3CCN(C(C)C)CC3)cc3c(C(=O)N4CC(OC)C4)cccc32)c1` [Example 8, 4-(3-Methoxy-azetidine-1-carbonyl)-1-(3-methoxy-benzyl)-1H-indole-2-carboxylic acid (1-isopropyl-piperidin-4-yl)-amide], the Ki was 0.133 µM.

Take `Cc1oc(=O)oc1COC(=O)c1cccc2c1cc(C(=O)NC1CCN(C(C)C)CC1)n2Cc1cc(-c2ccc(Cl)s2)on1` [Example 14, 1-[5-(5-Chloro-thiophen-2-yl)-isoxazol-3-ylmethyl]-2-(1-isopropyl-piperidin-4-ylcarbamoyl)-1H-indole-4-carboxylic acid 5-methyl-2-oxo-[1,3]dioxol-4-ylmethyl ester]: the Ki is 0.001 µM.

In the case of `CC(C)N1CCC(NC(=O)c2cc3cc(C(=O)N4CC(O)C4)ccc3n2Cc2cc(-c3ccc(Cl)s3)on2)CC1` [Example 1, 1-[5-(5-Chloro-thiophen-2-yl)-isoxazol-3-ylmethyl]-5-(3-hydroxy-azetidine-1-carbonyl)-1H-indole-2-carboxylic acid (1-isopropyl-piperidin-4-yl)-amide], the Ki is 0.057 µM.

Turning to `CC(C)N1CCC(NC(=O)c2cc3c(C(=O)N4CCCOCC4)cccc3n2CC(=O)Nc2ccc(Cl)cn2)CC1` [Example 7, 1-[(5-Chloro-pyridin-2-ylcarbamoyl)-methyl]-4-([1,4]oxazepane-4-carbonyl)-1H-indole-2-carboxylic acid (1-isopropyl-piperidin-4-yl)-amide], the Ki was 0.003 µM.

Regarding `COc1cccc(Cn2c(C(=O)NC3CCN(C(C)C)CC3)cc3c(C(=O)N4CC(O)C4)cccc32)c1` [Example 9, 4-(3-Hydroxy-azetidine-1-carbonyl)-1-(3-methoxy-benzyl)-1H-indole-2-carboxylic acid (1-isopropyl-piperidin-4-yl)-amide], the Ki was 0.124 µM.

Consider `Cc1oc(=O)oc1COC(=O)c1ccc2c(c1)cc(C(=O)NC1CCN(C(C)C)CC1)n2Cc1cc(-c2ccc(Cl)s2)on1` [Example 15, 1-[5-(5-Chloro-thiophen-2-yl)-isoxazol-3-ylmethyl]-2-(1-isopropyl-piperidin-4-ylcarbamoyl)-1H-indole-5-carboxylic acid 5-methyl-2-oxo-[1,3]dioxol-4-ylmethyl ester], for which the Ki is 0.011 µM.

On to `COCCOC(=O)OC(C)OC(=O)c1cccc2c1cc(C(=O)NC1CCN(C(C)C)CC1)n2CC(=O)Nc1ccc(Cl)cn1` (stereo not drawn) [Example 13, 1-[(5-Chloro-pyridin-2-ylcarbamoyl)-methyl]-2-(1-isopropyl-piperidin-4-ylcarbamoyl)-1H-indole-4-carboxylic acid 1-(2-methoxy-ethoxycarbonyloxy)-ethyl ester], for which the Ki was 0.002 µM.

In the case of `CC(C)ONC(=O)c1ccc2c(c1)cc(C(=O)NC1CCN(C(C)C)CC1)n2Cc1cc(-c2ccc(Cl)s2)on1` [Example 10, 1-[5-(5-Chloro-thiophen-2-yl)-isoxazol-3-ylmethyl]-1H-indole-2,5-dicarboxylic acid 5-(isopropoxy-amide) 2-[(1-isopropyl-piperidin-4-yl)-amide]], the Ki was 0.024 µM.
